Like-named read-outs stand apart in the source and are kept apart here.
Experiments:
[1] = molecular target: FMDV 3C^pro (Foot-and-mouth disease virus, UniProt P03306); experiment: cell-based
[2] = tested on: FMDV; experiment: organism not typed; format: cell-based, Foot-and-mouth-disease virus serotype A (NP05)
[3] = in vitro; settings: hamster, Cytotoxicity (CC50)
[4] = tested on: BHK-21 cells
[5] = BHK-21, 0 h, read-out: Viral (EC50)
[6] = BHK-21, 2 h, read-out: Post-Viral (EC50)
[7] = BHK-21, read-out: Prophylaxis (EC50)
[8] = read-out: EC50 (low antiviral activities)

Chain of FMDV 3C^pro (P03306 1650-1862 limits assumed): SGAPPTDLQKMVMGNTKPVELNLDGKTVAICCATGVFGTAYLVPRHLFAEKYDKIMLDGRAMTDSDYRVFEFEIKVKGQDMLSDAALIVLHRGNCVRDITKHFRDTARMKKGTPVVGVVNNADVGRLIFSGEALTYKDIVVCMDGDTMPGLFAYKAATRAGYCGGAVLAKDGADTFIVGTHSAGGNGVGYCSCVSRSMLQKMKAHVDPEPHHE

With `COc1cc(O)c2c(=O)cc(-c3ccc(O)c(O)c3)oc2c1` [7-O-Methylluteolin] the IC50 [1] was over 200 µM, the EC50 [2, 5] was 75 to 100 µM and the EC50 [2, 6] was 75 to 100 µM. For the same compound, the EC50 [2, 7] was over 100 µM, the EC50 [2, 8] was 75 to 100 µM and the CC50 [3] was over 100 µM.
For `O=c1cc(-c2ccc(O)cc2)oc2cc(O)cc(O)c12` [Apigenin], the IC50 [1] was over 200 µM, the EC50 [2, 5] was 75 to 100 µM and the EC50 [2, 6] was 75 to 100 µM. The EC50 [2, 7] was over 100 µM, the EC50 [2, 8] was 75 to 100 µM and the CC50 [3] was 68.7 ± 4.1 µM.
Compound `O=C(O)[C@H]1O[C@@H](Oc2cc3oc(-c4ccccc4)cc(=O)c3c(O)c2O)[C@H](O)[C@@H](O)[C@@H]1O` [Baicalin] has a CC50 [3] of over 100 µM.
Work on `COc1ccc(-c2coc3cc(O[C@@H]4O[C@H](CO)[C@@H](O)[C@H](O)[C@H]4O)ccc3c2=O)cc1O` [Calycosin 7-O-glucoside] yielded a CC50 [4] of over 100 µM.
`O=C/C=C/c1ccccc1` [Cinnamaldehyde] gave a CC50 [3] of over 100 µM.
For `COc1ccc(-c2cc(=O)c3c(O)cc(O[C@@H]4O[C@H](CO[C@@H]5O[C@@H](C)[C@H](O)[C@@H](O)[C@H]5O)[C@@H](O)[C@H](O)[C@H]4O)cc3o2)cc1O` [Diosmin], the CC50 [3] was over 100 µM.
In the case of `O=C(O[C@@H]1Cc2c(O)cc(O)cc2O[C@@H]1c1cc(O)c(O)c(O)c1)c1cc(O)c(O)c(O)c1` [EGCG], the CC50 [4] is reported as over 100 µM.
For `COc1cc(C2Oc3cc([C@H]4Oc5cc(O)cc(O)c5C(=O)[C@@H]4O)ccc3OC2CO)ccc1O` (stereo partly drawn) [Flavobin], the CC50 [3] was 45.1 µM.
Work on `COc1ccc([C@@H]2CC(=O)c3c(O)cc(O[C@@H]4O[C@H](CO[C@@H]5O[C@@H](C)[C@H](O)[C@@H](O)[C@H]5O)[C@@H](O)[C@H](O)[C@H]4O)cc3O2)cc1O` [Hesperidin] yielded a CC50 [4] of over 100 µM.
For `COc1ccc(-c2cc(=O)c3c(O)cc(O)c(-c4cc(-c5cc(=O)c6c(O)cc(O)cc6o5)ccc4OC)c3o2)cc1` [Isoginkgetin], the “Fold increase of the FLuc over Renilla luciferase (Rluc) ratio” value (shortened to “Fold increase of the FLuc … (Rluc) ratio”) [1] was 2.65 fold, the IC50 [1] was 39.03 ± 0.05 µM and the EC50 [2, 5] was 2.01 ± 0.07 µM. For the same compound, the EC50 [2, 6] was 1.93 ± 0.21 µM, the EC50 [2, 7] was 6.76 ± 0.8 µM and the CC50 [3] was over 100 µM.
With `O=C(COc1cc(O)c2c(=O)cc(-c3ccccc3)oc2c1)c1ccc(F)cc1` [Kaempferol derivative, 7-[2-(4-Fluorophenyl)-2-oxoethoxy]-5-hydroxy-2-phenyl-4H-chromen-4-one] the CC50 [3] was over 100 µM.
`COc1ccc(-c2cc(=O)c3c(O)cc(O[C@@H]4O[C@H](CO[C@@H]5O[C@@H](C)[C@H](O)[C@@H](O)[C@H]5O)[C@@H](O)[C@H](O)[C@H]4O)cc3o2)cc1` [Linarin] gave a CC50 [4] of over 100 µM.
With `O=C(/C=C/c1ccc(O)c2c1[C@H](C(=O)O)[C@@H](c1ccc(O)c(O)c1)O2)O[C@H](Cc1ccc(O)c(O)c1)C(=O)O` [Lithospermic acid] the CC50 [3] was over 100 µM.
With `O=c1cc(-c2ccc(O)c(O)c2)oc2cc(O)cc(O)c12` [Luteolin] the “Fold increase of the FLuc … (Rluc) ratio” value [1] was 1.86 fold, the IC50 [1] was 176.7 ± 0.05 µM and the EC50 [2, 5] was 9.73 ± 0.94 µM. The EC50 [2, 6] was 10 ± 0.98 µM, the EC50 [2, 7] was 25.8 ± 1.29 µM and the CC50 [3] was over 100 µM.
Compound `O=c1cc(-c2ccccc2)oc2cc(O[C@@H]3O[C@H](CO[C@@H]4O[C@H](CO)[C@@H](O)[C@H](O)[C@H]4O)[C@@H](O)[C@H](O)[C@H]3O)c(O)c(O)c12` [Oroxin B] has a CC50 [4] of 85.9 ± 7.4 µM.
Work on `C[C@@H]1O[C@@H](Oc2cc(O)c3c(=O)c(O)c(-c4ccc(O)c(O)c4)oc3c2)[C@H](O)[C@H](O)[C@H]1O` [Quercetin 7-rhamnoside] yielded a CC50 [4] of over 100 µM, an IC50 ([1]; read-out: IC50, cell-based protease assay) of over 200 µM and an EC50 ([2]; read-out: Post-Viral (EC50)) of 75 to 100 µM. The EC50 ([2]; read-out: Prophylaxis (EC50)) was over 100 µM and the EC50 ([2]; read-out: Viral (EC50)) was over 100 µM.
With `NC(=O)c1ncn([C@@H]2O[C@H](CO)[C@@H](O)[C@H]2O)n1` [Ribavirin, reference compound] the EC50 [2, 5] was 41.8 ± 1.58 µM, the EC50 [2, 6] was 133 ± 2.03 µM and the EC50 [2, 7] was 283.9 ± 2.3 µM. For the same compound, the CC50 [3] was over 100 µM.
In the case of `CCOC(=O)/C=C/[C@H](C[C@@H]1CCNC1=O)NC(=O)[C@@H](CC(=O)[C@@H](NC(=O)c1cc(C)on1)C(C)C)Cc1ccc(F)cc1` [Rupintrivir, reference compound], the “Fold increase of the FLuc … (Rluc) ratio” value [1] is reported as 4.27 fold, the IC50 [1] is reported as 13.5 ± 0.19 µM and the EC50 [2, 5] is reported as 1.99 ± 0.01 µM. The EC50 [2, 6] was 1.69 ± 0.19 µM, the EC50 [2, 7] was 11.8 ± 1.03 µM and the CC50 [3] was over 100 µM.
`O=C(/C=C/c1ccc(O)cc1)OC[C@H]1O[C@@H](Oc2c(-c3ccc(O)cc3)oc3cc(O)cc(O)c3c2=O)[C@H](O)[C@@H](O)[C@@H]1O` [Tiliroside] showed a CC50 [3] of over 100 µM.
For Epicatechin-3-gallate, the CC50 [4] was 77 ± 8.85 µM.
With Hyperoxide the CC50 [4] was over 100 µM.
Compound Methyl Hesperidin,(S) has a CC50 [4] of over 100 µM.

From article PMC8625466 (Viruses, 2021)
